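Compound exposure: 48 hours, 5 concentrations, 96-well plates. The concentration for 50% growth inhibition is given as GI50.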 Calls of active or inactive are those of the source. No stated cut-off is given here; in the data, active = GI50 up to about 1.1 µM and inactive = higher.
Columns and labels:
Assay in all cases: growth of human tumour cells (NCI), 48 h
NCI-H460 = system: NCI-H460
SNB-75 = system: SNB-75
SW-620 = system: SW-620
UACC-62 = system: UACC-62
SK-MEL-28 = system: SK-MEL-28
BT-549 = system: BT-549
HOP-62 = system: HOP-62
COLO 205 = system: COLO 205
HL-60 = system: HL-60
HCT-15 = system: HCT-15
RPMI-8226 = system: RPMI-8226
MDA-MB-231 = system: MDA-MB-231
HOP-92 = system: HOP-92
RXF 393 = system: RXF 393
T47D = system: T47D
UO-31 = system: UO-31
K562 = system: K562

Structure (SMILES) | GI50 (NCI-H460) | GI50 (SNB-75) | GI50 (SW-620) | GI50 (UACC-62) | GI50 (SK-MEL-28) | GI50 (BT-549) | GI50 (HOP-62) | GI50 (COLO 205) | GI50 (HL-60) | GI50 (HCT-15) [µM] | GI50 (RPMI-8226) | GI50 (MDA-MB-231) | GI50 (HOP-92) | GI50 (RXF 393) | GI50 (T47D) | GI50 (UO-31) | GI50 (K562)
COc1ccc(-c2c(C#N)c(O)n(NS(=O)(=O)c3ccc(C)cc3)c(=O)c2C#N)cc1 | 46.2 µM (inactive) | > 100 µM (inactive) | 57.4 µM (inactive) | 81.7 µM (inactive) | 82.8 µM (inactive) | 54.8 µM (inactive) | 99.3 µM (inactive) | > 100 µM (inactive) | 37.1 µM (inactive) | 49.1 | 19.5 µM (inactive) | > 100 µM (inactive) | 4.71 µM (inactive) | 66.5 µM (inactive) | – | – | –
CCN(CC(COc1ccc2c(c1)[n+]([O-])nc(N)[n+]2[O-])OC(C)=O)C(C)=O (configuration not stated) | > 10 µM (inactive) | 35.8 µM (inactive) | > 100 µM (inactive) | 29.6 µM (inactive) | > 100 µM (inactive) | > 100 µM (inactive) | 45.9 µM (inactive) | 32.2 µM (inactive) | 80.4 µM (inactive) | > 100 | > 100 µM (inactive) | > 100 µM (inactive) | – | – | 33.9 µM (inactive) | 72.3 µM (inactive) | 14.1 µM (inactive)
COc1c(-c2nc3ccc(N4CCN(C)CC4)nc3[nH]2)cc(OC)c2[nH]c(COC(C)=O)nc12 | 31.6 µM (inactive) | 24.4 µM (inactive) | 27.9 µM (inactive) | 47.9 µM (inactive) | 49.1 µM (inactive) | 56.9 µM (inactive) | 25 µM (inactive) | 28.7 µM (inactive) | – | 46 | – | 17.9 µM (inactive) | > 100 µM (inactive) | 21.8 µM (inactive) | 22.5 µM (inactive) | 30.7 µM (inactive) | 1.52 µM (inactive)
CC(C)C1=CC23CCC4C(C)(C(=O)O)CCCC4(C)C2CC1C1C(=O)N(c2ccccc2N2C(=O)C4C5CC6C7(C)CCCC(C)(C(=O)O)C7CCC6(C=C5C(C)C)C4C2=O)C(=O)C13 (configuration not stated) | – | – | 12.6 µM (inactive) | – | 7.89 µM (inactive) | – | 4.67 µM (inactive) | 4.57 µM (inactive) | 6.38 µM (inactive) | 14.3 | 7.64 µM (inactive) | 11.6 µM (inactive) | 17.9 µM (inactive) | 11.3 µM (inactive) | 19.9 µM (inactive) | 18.2 µM (inactive) | 6.58 µM (inactive)
CC(C)(C)C1CC[C@H](O)[C@H]([C@@H](O)CC2CC(=O)N(c3ccccc3)C(=O)C2)C1 (some centres not stated) | 44.2 µM (inactive) | > 100 µM (inactive) | > 100 µM (inactive) | 26.6 µM (inactive) | > 100 µM (inactive) | 29.4 µM (inactive) | > 100 µM (inactive) | – | 28.1 µM (inactive) | 56.4 | 46.2 µM (inactive) | 67.3 µM (inactive) | 23.3 µM (inactive) | 64 µM (inactive) | – | 76.4 µM (inactive) | 54.1 µM (inactive)
CC1=NOC2(C1)C(=O)Nc1ccccc12 (configuration not stated) | > 100 µM (inactive) | 66.2 µM (inactive) | 24.4 µM (inactive) | > 100 µM (inactive) | > 100 µM (inactive) | – | > 100 µM (inactive) | > 100 µM (inactive) | > 100 µM (inactive) | > 100 | > 100 µM (inactive) | > 100 µM (inactive) | – | > 100 µM (inactive) | > 100 µM (inactive) | 0.0121 µM (active) | > 100 µM (inactive)
COC(=O)c1sc(=S)sc1SCc1ccccc1CSc1sc(=S)sc1C(=O)OC | > 100 µM (inactive) | 38.6 µM (inactive) | > 100 µM (inactive) | > 100 µM (inactive) | > 100 µM (inactive) | > 100 µM (inactive) | 85.7 µM (inactive) | > 100 µM (inactive) | – | > 100 | – | > 100 µM (inactive) | > 100 µM (inactive) | 44.3 µM (inactive) | – | > 100 µM (inactive) | 38.5 µM (inactive)
O=C1CCC2c3ccccc3NCN12 (configuration not stated) | > 100 µM (inactive) | > 100 µM (inactive) | > 100 µM (inactive) | > 100 µM (inactive) | > 100 µM (inactive) | – | > 100 µM (inactive) | > 100 µM (inactive) | > 100 µM (inactive) | > 100 | > 100 µM (inactive) | > 100 µM (inactive) | > 100 µM (inactive) | > 100 µM (inactive) | > 100 µM (inactive) | > 100 µM (inactive) | > 100 µM (inactive)
C/C=C/C(C#N)(/C=C/c1ccccc1)OP1(=O)OC(c2ccccc2)C(C)N1C (configuration not stated) | 17.9 µM (inactive) | 20.5 µM (inactive) | 16.1 µM (inactive) | 17.7 µM (inactive) | 17.1 µM (inactive) | – | 19.4 µM (inactive) | 17.2 µM (inactive) | 12.6 µM (inactive) | – | 15.2 µM (inactive) | 17.5 µM (inactive) | 14.6 µM (inactive) | 20.7 µM (inactive) | 20.7 µM (inactive) | 17.8 µM (inactive) | 16.4 µM (inactive)

From ChEMBL document CHEMBL1201862, “PubChem BioAssay data set” (2004)
